Measurements taken from patent publication US20010029239A1, “New herbicidal compositions” (priority 1999, published 2001).

Assay: Pre-emergence (experimental example 1) and post-emergence (experimental example 2) herbicidal tests, reported together
Type: in vivo
Conditions: 336 h; one or more weed species, in one or both of experimental examples 1 (pre-emergence, 250 g/ha) and 2 (post-emergence, 250 g/ha or less); two weeks after treatment, versus untreated control; read-out: reduction in the growth of one or more weed species
Protocol: Seed of various broad-leaf and grass weed species were sown and herbicide, dissolved in a mixture of acetone and water, was applied at a rate of 250 g/ha to the soil surface. The said weeds are Amaranthus retroflexus, Abutilon theophrasti, Galium aparine, Ipomoea purpurea, Setaria viridis, Alopecurus myosuroides, Avena fatua and Echinochloa crus-calli. Two weeks after treatment the percentage reduction in plant growth was assessed in comparison with an untreated control. Seed of the various weed species, as listed in experimental example 1, were sown and grown up to a 1-3 leaves stage. A post-emergence application of herbicide, dissolved in a mixture of acetone and water, was applied at a rate of 250 g/ha or less. Two weeks after treatment the percentage reduction in plant growth was assessed, in comparison with an untreated control.

Row | Compound | pest or weed control at up to 250 g/ha
1 | COC=C(Oc1cccc(COc2ccc(OC)cc2)c1C(=O)O)C(=O)OC [Compound 19, methyl 2-[2-carboxy-3-(4-methoxyphenoxymethyl)phenoxy]-3-methoxypropenoate] | ≥ 80%
2 | COC=C(Oc1cccc(COc2ccccc2)c1C(=O)O)C(=O)OC [Compound 16, methyl 2-(2-carboxy-3-phenoxymethylphenoxy)-3-methoxypropenoate] | ≥ 80%
3 | COC=C(Oc1cccc(OC(=COC)C(=O)OC)c1C(=O)O)C(=O)OC [Compound 1, 2,6-bis(2-methoxy-1-methoxycarbonyl-vinyloxy)benzoic acid] | ≥ 80%
4 | COC=C(Oc1cccc(COc2ccc(C)cc2)c1C(=O)O)C(=O)OC [Compound 20, methyl 2-[2-carboxy-3-(4-methylphenoxymethyl)phenoxy]-3-methoxypropenoate] | ≥ 70%
5 | COC=C(Oc1cccc(COC(C)=O)c1C(=O)O)C(=O)OC [Compound 2, methyl 2-(3-acetoxymethyl-2-carboxyphenoxy)-3-methoxypropenoate] | ≥ 80%
6 | COC=C(Oc1cccc(COc2ccc(C#N)cc2)c1C(=O)O)C(=O)OC [Compound 18, methyl 2-[2-carboxy-3-(4-cyanophenoxymethyl)phenoxy]-3-methoxypropenoate] | ≥ 70%
7 | COC=C(Oc1cccc(COc2ccc(Cl)cc2)c1C(=O)O)C(=O)OC [Compound 17, methyl 2-(2-carboxy-3-(4-chlorophenoxymethyl)phenoxy)-3-methoxypropenoate] | ≥ 70%
8 | C#CCOC(=O)c1c(OC(=COC)C(=O)OC)cccc1OC(=COC)C(=O)OC [Compound 13, propargyl 2,6-bis(2-methoxy-1-methoxycarbonyl-vinyloxy)benzoate] | ≥ 80%
